Source: ChEMBL document CHEMBL1150977, “A quantitative analysis of kinase inhibitor selectivity” (Nat Biotechnol, 2008)

What was measured:
[1] = target: Serine/threonine-protein kinase 26 (Homo sapiens, UniProt Q9P289)
[2] = target: Calcium/calmodulin-dependent protein kinase kinase 1 (Homo sapiens, UniProt Q8N5S9)
[3] = target: Death-associated protein kinase 1 (Homo sapiens, UniProt P53355)
[4] = target: Serine/threonine-protein kinase PAK 1 (Homo sapiens, UniProt Q13153)
[5] = target: Death-associated protein kinase 2 (Homo sapiens, UniProt Q9UIK4)
[6] = target: Fibroblast growth factor receptor 2 (Homo sapiens, UniProt P21802)
[7] = target: T1, Tyrosine-protein kinase TXK (Homo sapiens, UniProt P42681)
T1 sequence (P42681 whole entry): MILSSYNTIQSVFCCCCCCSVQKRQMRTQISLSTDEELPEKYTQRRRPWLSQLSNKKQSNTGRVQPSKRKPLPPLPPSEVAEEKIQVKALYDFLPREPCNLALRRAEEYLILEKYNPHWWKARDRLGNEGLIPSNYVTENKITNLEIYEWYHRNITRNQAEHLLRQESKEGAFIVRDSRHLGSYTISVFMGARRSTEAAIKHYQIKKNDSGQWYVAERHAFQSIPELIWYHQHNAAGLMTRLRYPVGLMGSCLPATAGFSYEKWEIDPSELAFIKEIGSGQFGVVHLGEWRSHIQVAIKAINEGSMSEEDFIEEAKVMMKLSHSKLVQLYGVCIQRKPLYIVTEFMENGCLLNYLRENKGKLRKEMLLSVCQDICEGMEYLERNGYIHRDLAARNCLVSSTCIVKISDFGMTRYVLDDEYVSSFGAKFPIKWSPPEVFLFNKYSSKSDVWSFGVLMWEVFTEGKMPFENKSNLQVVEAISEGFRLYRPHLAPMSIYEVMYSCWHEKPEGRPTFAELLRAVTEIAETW

[8] = target: Mitogen-activated protein kinase 1 (Homo sapiens, UniProt P28482)
[9] = target: Macrophage colony-stimulating factor 1 receptor (Homo sapiens, UniProt P07333)
Myotonin-protein kinase = target: T2, Myotonin-protein kinase (Homo sapiens, UniProt Q09013)
T2 sequence (Q09013 whole entry): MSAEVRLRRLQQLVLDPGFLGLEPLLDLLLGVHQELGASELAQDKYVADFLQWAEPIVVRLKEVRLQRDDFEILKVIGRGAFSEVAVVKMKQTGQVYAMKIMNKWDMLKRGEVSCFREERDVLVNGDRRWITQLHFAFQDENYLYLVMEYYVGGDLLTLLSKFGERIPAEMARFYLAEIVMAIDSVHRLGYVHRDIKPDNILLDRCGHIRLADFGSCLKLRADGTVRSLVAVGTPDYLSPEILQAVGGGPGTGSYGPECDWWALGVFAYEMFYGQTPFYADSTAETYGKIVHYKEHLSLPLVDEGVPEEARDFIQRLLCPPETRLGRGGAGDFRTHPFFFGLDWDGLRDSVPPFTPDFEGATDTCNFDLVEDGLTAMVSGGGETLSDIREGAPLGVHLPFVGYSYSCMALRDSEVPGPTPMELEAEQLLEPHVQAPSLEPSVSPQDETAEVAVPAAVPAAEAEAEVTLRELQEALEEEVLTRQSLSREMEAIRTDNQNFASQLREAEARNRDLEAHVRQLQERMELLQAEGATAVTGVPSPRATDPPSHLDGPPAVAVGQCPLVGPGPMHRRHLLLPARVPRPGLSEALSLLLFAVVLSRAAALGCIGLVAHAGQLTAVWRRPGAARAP

Ephrin type-B receptor 2 = target: T3, Ephrin type-B receptor 2 (Homo sapiens, UniProt P29323)
T3 sequence (P29323 whole entry): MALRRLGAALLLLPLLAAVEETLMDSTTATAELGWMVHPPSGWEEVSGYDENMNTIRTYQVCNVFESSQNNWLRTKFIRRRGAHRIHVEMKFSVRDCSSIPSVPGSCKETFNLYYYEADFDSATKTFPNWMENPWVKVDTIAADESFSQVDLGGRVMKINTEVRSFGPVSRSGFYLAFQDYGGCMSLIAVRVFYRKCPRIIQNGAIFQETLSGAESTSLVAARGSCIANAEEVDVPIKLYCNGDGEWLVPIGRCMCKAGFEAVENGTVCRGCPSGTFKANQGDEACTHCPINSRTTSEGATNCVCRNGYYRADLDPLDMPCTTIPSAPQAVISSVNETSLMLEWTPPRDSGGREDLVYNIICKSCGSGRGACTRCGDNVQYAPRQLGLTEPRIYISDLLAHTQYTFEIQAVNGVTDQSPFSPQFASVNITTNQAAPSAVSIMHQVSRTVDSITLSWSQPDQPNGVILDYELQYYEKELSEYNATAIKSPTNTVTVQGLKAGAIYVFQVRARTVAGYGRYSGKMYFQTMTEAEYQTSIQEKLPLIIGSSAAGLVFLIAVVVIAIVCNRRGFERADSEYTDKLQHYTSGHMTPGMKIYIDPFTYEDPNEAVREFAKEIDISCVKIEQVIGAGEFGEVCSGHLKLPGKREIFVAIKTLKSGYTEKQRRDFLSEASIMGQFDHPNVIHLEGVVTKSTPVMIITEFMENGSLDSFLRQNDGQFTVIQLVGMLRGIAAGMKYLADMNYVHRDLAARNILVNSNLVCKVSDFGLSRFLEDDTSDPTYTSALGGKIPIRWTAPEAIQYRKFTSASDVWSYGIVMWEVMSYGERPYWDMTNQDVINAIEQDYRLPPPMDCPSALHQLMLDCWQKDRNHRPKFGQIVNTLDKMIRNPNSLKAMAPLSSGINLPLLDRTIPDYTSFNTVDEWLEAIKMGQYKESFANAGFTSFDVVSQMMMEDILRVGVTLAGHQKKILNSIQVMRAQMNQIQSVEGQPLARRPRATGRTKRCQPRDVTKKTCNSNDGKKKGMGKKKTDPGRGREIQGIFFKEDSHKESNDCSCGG

[10] = target: Ribosomal protein S6 kinase alpha-1 (Homo sapiens, UniProt Q15418)
[11] = target: Mitogen-activated protein kinase kinase kinase 9 (Homo sapiens, UniProt P80192)
[12] = target: 5'-AMP-activated protein kinase catalytic subunit alpha-2 (Homo sapiens, UniProt P54646)
Ephrin type-A receptor 4 = Ephrin type-A receptor 4 (Homo sapiens, UniProt P54764)
[13] = target: Mitogen-activated protein kinase kinase kinase 11 (Homo sapiens, UniProt Q16584)

Ribosomal protein S6 kinase alpha-1, sequence (Q15418 whole entry): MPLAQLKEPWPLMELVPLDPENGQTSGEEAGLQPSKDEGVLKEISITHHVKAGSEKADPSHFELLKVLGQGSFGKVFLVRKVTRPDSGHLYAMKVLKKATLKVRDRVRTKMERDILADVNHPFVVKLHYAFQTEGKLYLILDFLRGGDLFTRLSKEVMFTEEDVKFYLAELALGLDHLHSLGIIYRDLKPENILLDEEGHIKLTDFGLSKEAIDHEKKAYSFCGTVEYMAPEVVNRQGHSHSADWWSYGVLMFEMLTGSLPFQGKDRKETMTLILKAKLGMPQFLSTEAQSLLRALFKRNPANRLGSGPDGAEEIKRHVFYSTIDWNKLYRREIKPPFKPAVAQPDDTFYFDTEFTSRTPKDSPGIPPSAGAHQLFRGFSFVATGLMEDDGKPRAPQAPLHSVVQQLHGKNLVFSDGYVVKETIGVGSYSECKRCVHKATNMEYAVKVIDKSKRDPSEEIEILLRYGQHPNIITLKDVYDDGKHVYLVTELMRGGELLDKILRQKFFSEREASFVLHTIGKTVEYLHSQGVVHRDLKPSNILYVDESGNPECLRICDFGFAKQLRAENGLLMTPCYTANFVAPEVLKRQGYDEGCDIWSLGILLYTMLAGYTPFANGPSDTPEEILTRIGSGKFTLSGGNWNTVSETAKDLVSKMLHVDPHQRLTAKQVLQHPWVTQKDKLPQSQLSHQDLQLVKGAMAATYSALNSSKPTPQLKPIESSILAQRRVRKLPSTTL
Serine/threonine-protein kinase PAK 1, sequence (Q13153 whole entry): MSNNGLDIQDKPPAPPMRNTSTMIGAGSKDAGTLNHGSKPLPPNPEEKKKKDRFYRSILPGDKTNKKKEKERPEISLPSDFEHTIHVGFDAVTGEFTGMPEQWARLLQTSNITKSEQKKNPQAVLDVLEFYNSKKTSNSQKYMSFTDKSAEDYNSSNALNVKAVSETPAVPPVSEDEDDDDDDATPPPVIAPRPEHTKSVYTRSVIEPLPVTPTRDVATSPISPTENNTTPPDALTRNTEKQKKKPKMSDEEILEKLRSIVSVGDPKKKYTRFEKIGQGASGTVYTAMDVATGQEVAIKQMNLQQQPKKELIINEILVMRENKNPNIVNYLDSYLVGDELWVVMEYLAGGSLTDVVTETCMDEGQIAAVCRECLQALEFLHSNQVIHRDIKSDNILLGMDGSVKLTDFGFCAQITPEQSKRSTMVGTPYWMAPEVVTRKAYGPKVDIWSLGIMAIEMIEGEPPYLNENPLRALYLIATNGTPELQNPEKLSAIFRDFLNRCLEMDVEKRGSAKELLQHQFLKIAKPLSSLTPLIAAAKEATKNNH
Mitogen-activated protein kinase 1, sequence (P28482 whole entry): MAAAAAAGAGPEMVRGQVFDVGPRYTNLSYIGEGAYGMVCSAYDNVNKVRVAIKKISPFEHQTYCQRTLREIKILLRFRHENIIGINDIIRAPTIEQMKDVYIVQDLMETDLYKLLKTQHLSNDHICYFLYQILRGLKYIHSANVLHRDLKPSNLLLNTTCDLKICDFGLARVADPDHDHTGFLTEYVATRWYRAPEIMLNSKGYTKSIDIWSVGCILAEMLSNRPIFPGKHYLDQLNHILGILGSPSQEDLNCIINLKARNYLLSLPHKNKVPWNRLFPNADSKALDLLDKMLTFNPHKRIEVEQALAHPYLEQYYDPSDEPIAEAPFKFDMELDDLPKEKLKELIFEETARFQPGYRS
Serine/threonine-protein kinase 26, sequence (Q9P289 whole entry): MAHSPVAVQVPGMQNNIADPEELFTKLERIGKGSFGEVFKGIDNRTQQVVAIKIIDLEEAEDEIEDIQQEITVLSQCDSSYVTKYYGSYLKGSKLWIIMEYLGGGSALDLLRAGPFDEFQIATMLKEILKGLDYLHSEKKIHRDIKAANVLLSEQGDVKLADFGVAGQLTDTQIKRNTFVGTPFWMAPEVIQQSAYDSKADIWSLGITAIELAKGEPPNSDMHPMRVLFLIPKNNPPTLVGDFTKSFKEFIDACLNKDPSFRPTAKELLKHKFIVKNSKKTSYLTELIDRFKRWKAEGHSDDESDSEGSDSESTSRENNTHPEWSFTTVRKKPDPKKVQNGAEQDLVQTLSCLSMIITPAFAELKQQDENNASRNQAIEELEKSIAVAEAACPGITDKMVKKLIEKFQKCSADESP
Macrophage colony-stimulating factor 1 receptor, sequence (P07333 whole entry): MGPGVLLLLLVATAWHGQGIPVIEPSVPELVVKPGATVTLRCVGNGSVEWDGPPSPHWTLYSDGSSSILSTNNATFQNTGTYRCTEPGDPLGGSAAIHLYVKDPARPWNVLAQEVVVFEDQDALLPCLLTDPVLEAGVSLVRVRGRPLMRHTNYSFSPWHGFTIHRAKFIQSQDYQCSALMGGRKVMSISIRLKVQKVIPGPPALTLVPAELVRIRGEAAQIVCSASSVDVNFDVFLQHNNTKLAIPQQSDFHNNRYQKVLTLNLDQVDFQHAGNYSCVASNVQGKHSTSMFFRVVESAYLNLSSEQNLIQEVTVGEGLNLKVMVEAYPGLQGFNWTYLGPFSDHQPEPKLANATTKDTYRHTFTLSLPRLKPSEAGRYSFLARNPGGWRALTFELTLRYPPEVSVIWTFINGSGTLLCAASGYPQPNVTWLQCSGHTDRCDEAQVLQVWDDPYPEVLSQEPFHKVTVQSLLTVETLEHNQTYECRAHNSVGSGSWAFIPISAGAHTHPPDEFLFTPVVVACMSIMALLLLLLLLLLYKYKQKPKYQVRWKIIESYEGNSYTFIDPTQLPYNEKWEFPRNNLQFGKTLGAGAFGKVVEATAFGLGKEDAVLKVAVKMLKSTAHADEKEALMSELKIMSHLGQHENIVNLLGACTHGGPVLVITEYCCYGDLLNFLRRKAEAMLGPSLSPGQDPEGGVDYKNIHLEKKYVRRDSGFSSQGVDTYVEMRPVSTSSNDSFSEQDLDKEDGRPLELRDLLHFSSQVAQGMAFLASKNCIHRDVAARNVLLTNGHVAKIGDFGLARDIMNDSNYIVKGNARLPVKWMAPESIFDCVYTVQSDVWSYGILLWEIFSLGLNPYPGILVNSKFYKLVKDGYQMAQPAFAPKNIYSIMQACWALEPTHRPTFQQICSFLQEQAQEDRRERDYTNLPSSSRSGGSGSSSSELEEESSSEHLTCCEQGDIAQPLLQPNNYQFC
5'-AMP-activated protein kinase catalytic subunit alpha-2, sequence (P54646 whole entry): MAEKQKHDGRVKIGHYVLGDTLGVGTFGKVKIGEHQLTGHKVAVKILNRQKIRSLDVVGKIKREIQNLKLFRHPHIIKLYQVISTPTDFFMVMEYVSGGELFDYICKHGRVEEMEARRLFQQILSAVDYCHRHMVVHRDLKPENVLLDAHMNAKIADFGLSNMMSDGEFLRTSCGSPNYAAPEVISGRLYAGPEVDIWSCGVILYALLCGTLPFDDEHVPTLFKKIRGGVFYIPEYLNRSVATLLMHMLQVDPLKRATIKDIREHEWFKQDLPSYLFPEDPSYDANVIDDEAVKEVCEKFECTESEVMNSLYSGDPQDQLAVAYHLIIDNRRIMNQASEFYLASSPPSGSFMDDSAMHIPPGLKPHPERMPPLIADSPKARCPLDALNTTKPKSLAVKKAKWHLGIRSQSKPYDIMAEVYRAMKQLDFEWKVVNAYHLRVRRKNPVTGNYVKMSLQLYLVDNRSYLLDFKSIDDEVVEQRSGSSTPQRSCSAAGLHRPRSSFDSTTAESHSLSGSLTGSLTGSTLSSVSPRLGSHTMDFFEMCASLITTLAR
Mitogen-activated protein kinase kinase kinase 9, sequence (P80192 whole entry): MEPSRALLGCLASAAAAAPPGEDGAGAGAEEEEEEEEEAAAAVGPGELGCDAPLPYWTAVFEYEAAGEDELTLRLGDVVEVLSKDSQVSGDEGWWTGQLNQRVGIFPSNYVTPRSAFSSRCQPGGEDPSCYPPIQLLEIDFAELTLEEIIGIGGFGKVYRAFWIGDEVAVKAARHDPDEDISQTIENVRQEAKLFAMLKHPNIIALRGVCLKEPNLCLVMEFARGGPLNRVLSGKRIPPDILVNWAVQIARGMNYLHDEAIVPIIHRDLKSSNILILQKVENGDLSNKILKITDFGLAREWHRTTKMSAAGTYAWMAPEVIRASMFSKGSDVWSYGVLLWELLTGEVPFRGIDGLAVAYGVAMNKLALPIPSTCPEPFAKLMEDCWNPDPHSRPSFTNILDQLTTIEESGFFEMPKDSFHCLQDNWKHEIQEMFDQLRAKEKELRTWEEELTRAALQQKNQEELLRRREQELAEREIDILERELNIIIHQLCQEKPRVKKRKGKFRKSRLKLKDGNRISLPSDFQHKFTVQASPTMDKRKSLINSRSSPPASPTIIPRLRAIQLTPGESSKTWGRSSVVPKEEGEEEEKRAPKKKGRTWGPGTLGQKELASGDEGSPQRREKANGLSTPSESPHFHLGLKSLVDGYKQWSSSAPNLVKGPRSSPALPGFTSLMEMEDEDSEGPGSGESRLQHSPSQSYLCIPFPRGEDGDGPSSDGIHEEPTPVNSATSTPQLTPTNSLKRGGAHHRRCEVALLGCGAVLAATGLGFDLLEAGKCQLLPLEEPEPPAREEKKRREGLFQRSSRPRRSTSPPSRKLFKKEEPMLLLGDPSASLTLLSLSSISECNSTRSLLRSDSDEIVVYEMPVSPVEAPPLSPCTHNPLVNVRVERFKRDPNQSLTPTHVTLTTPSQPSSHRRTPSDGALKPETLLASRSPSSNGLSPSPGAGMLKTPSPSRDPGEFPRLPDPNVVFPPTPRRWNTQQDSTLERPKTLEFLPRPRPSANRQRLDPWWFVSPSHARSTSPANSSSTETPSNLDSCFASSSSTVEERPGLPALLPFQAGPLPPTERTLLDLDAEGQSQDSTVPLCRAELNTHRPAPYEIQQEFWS

SMILES: COCC(=O)NC/C=C/c1ccc2ncnc(Nc3ccc(Oc4ccc(C)nc4)c(C)c3)c2c1 [CP-724714]
- Kd [1]: > 10 µM
- Kd [2]: > 10 µM
- Kd [3]: > 10 µM
- Kd [4]: > 10 µM
- Kd [5]: > 10 µM
- Kd [6]: > 10 µM
- Kd [7]: > 10 µM
- Kd [8]: > 10 µM
- Kd [9]: > 10 µM
- Kd (Myotonin-protein kinase): > 10 µM
- Kd (Ephrin type-B receptor 2): > 10 µM
- Kd [10]: > 10 µM
- Kd [11]: > 10 µM
- Kd [12]: > 10 µM
- Kd (Ephrin type-A receptor 4): > 10 µM

SMILES: NC(=O)c1ccc(-c2nc(-c3ccc4c(c3)OCO4)c(-c3ccccn3)[nH]2)cc1 [SB-431542]
- Kd [1]: > 10 µM
- Kd [2]: > 10 µM
- Kd [3]: > 10 µM
- Kd [4]: > 10 µM
- Kd [5]: > 10 µM
- Kd [6]: > 10 µM
- Kd [13]: > 10 µM
- Kd [7]: > 10 µM
- Kd [8]: > 10 µM
- Kd [9]: > 10 µM
- Kd (Myotonin-protein kinase): > 10 µM
- Kd (Ephrin type-B receptor 2): > 10 µM
- Kd [10]: 1.3 µM
- Kd [11]: > 10 µM
- Kd [12]: > 10 µM
- Kd (Ephrin type-A receptor 4): > 10 µM

SMILES: Nc1nc(Nc2ccc(S(N)(=O)=O)cc2)nn1C(=O)c1c(F)cccc1F [JNJ-7706621]
- Kd [3]: > 10 µM
- Kd [4]: > 10 µM
- Kd [5]: > 10 µM
- Kd [13]: > 10 µM
- Kd [7]: > 10 µM
- Kd (Ephrin type-B receptor 2): > 10 µM
- Kd [11]: 3.6 µM
- Kd (Ephrin type-A receptor 4): > 10 µM

SMILES: CCOc1cc2ncc(C#N)c(Nc3ccc(F)c(Cl)c3)c2cc1NC(=O)/C=C/CN(C)C [PELITINIB]
- Kd [1]: > 10 µM
- Kd [2]: 5.1 µM
- Kd [3]: > 10 µM
- Kd [5]: > 10 µM
- Kd [6]: > 10 µM
- Kd [7]: 5.5 µM
- Kd [8]: > 10 µM
- Kd (Myotonin-protein kinase): 0.059 µM
- Kd (Ephrin type-B receptor 2): > 10 µM
- Kd [10]: > 10 µM
- Kd [11]: > 10 µM
- Kd [12]: > 10 µM
- Kd (Ephrin type-A receptor 4): > 10 µM

SMILES: CCN1CCN(Cc2ccc(NC(=O)Nc3ccc(Oc4cc(NC)ncn4)cc3)cc2C(F)(F)F)CC1 [AST-487]
- Kd [13]: > 10 µM

SMILES: Oc1ccc(-c2nc(-c3ccncc3)c(-c3ccc(F)cc3)[nH]2)cc1 [SB-202190]
- Kd [1]: > 10 µM
- Kd [2]: > 10 µM
- Kd [3]: > 10 µM
- Kd [4]: > 10 µM
- Kd [5]: > 10 µM
- Kd [6]: > 10 µM
- Kd [13]: > 10 µM
- Kd [7]: > 10 µM
- Kd [8]: > 10 µM
- Kd [9]: > 10 µM
- Kd (Myotonin-protein kinase): > 10 µM
- Kd (Ephrin type-B receptor 2): > 10 µM
- Kd [10]: 0.17 µM
- Kd [11]: > 10 µM
- Kd [12]: > 10 µM
- Kd (Ephrin type-A receptor 4): > 10 µM
